These results are taken from patent US20240158370A1, “CK1 alpha AND DUAL CK1 alpha / GSPT1 DEGRADING COMPOUNDS” (Innovo Therapeutics, Inc., priority 2022, published 2024).

Type in all cases: cell-based
Assay [1] deals with T1, CK1α (Homo sapiens, UniProt P48729+Q96SW2).
T1 construct: CSNK1A1-HiBit KI HEK293(LgBit) Cells; host or cells: HEK293(LgBit) knock-in cells
Put plainly: HiBiT degradation assay, CK1α, Procedure A. A digest of the protocol:
(§1)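 Six-hour treatment at 37° C, ten doses between 10 μM and 0.005 μM, then HiBiT lytic luminescence. Fitted DC50 and Ymin.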

The test system of assay [2] is Z-138 cells. In words: Z-138 Proliferation Assay (Cell Titer-Glo). To be noted: 72 hours; for Ymin (%): % remaining (percent of DMSO control); for pEC50: Homo sapiens, Cell Titer-Glo, 4-parameter curve fit. How it is done:
Z-138 Proliferation Assay
Z-138 cells were cultured in IMDM Medium supplemented with 10% heat in-activated fetal bovine serum and 1% Penicillin-Streptomycin.
10 mM stocks of compound were made from fresh powder. DMSO was added to solid compound so that the final concentration was 10 mM. Compounds were vortexed and allowed to sit for 5 minutes to ensure complete solubility. Solvated compound was aliquoted into 1 ml Eppendorf tubes and stored in a −20° C. freezer.
Z-138 cells were maintained in culture using standard cell culturing techniques.
Cells were maintained at a density of 0.8×10^6 cells/ml.
Re-constitute cell titer-glo reagent according to manufacturer's protocol.
Z-138 cells were removed from culture and cell viability and density were determined using a CellDrop™ Automated Cell Counter with Tryphan blue stain according to manufacturer's protocols. Cells were centrifuged and resuspended using fresh media to a cell density of 0.1×10^6 cells/ml. […] 40 μl of cell suspension was added to the wells of a 384 well tissue culture plate (4,000 cells/well final). Upon completing the addition of the cells to the plate, the plates were centrifuged for 30 seconds at 300 rpms to help the cells settle and to bring air bubbles to the top of the wells. Air bubbles were popped using a pipette tip.
10-point dose response curves were performed using a D300e Digital Dispenser. The highest concentration of compound used in the assay was 10,000 nM. 1:2 dilutions were performed over a 10-point range with the final DMSO concentration being 0.1%. The cells were cultured for 72 hours in the presence of compound.
After 72 hours, the cell plates were removed from the incubator and allowed to equilibrate to room temperature (about 15 minutes). 20 μl of cell titer-glo reagent was added to each well of the 384 well plate. Incubated the plate for 30 minutes in the dark. After 30 minutes, ensured that there were no air bubbles in the plate (popped bubbles with pipette tip if necessary) and analyzed plate using a luminometer.
EC50 curves were generated using Prism Graph Pad. In brief, POCs (percent of control, compound/DMSO control×100) were plotted against the compound concentrations (log scale). EC50 curves were generated using a 4-parameter curve fit.

The target of assay [3] is T2, GSPT1 (Homo sapiens, UniProt P15170+Q96SW2). In words: HiBiT degradation assay, GSPT1, Procedure A. Set-up: HiBit-GSPT1 KI HEK293(LgBit) Cells; host or cells: HEK293(LgBit) knock-in cells. The essentials:
as §1

For assay [4], the target named is T2, GSPT1. In words: HiBiT degradation assay, GSPT1, Procedure B (Molt 4_hGSPT1_HiBIT cells). To be noted: six hours. Also noted: Molt 4_hGSPT1_HiBIT N-terminus tagged cells were generated using CRISPR technology; endogenous in cells; host or cells: Molt 4 cells, CRISPR-edited. A digest of the protocol:
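CRISPR N-terminal HiBiT-tagged Molt 4 cells at 1×10^6 cells/ml were treated 6 h at 37° C with compounds (10-point, 10 μM to 0.005 μM, 0.1% DMSO). Remaining HiBiT-GSPT1 was read by lytic luminescence; DC50 and Ymin (% remaining) from a 4-parameter fit.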

pEC50: −log10 of the molar value.

T1 sequence (P48729 whole entry): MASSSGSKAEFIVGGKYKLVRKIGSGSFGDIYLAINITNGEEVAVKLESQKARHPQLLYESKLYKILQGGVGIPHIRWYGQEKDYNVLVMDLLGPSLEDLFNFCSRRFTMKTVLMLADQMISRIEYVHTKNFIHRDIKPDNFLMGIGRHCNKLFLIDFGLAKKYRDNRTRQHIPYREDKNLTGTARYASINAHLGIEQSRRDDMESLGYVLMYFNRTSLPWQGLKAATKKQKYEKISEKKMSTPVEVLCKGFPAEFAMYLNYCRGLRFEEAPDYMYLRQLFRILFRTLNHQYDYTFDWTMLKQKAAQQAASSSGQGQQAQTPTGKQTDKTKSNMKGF
T1 sequence (Q96SW2 whole entry): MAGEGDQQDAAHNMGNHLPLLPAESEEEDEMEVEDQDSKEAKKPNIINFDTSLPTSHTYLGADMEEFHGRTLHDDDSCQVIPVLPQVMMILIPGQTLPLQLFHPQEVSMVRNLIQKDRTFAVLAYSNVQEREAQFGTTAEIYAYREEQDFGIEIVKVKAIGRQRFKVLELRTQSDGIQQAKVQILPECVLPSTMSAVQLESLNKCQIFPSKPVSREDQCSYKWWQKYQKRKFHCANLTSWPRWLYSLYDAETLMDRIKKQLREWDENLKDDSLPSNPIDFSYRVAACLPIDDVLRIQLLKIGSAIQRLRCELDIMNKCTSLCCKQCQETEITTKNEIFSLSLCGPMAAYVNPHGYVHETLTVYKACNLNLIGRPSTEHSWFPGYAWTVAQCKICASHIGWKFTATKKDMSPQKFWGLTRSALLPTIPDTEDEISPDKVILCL
T1 sequence (Q16531 whole entry partner): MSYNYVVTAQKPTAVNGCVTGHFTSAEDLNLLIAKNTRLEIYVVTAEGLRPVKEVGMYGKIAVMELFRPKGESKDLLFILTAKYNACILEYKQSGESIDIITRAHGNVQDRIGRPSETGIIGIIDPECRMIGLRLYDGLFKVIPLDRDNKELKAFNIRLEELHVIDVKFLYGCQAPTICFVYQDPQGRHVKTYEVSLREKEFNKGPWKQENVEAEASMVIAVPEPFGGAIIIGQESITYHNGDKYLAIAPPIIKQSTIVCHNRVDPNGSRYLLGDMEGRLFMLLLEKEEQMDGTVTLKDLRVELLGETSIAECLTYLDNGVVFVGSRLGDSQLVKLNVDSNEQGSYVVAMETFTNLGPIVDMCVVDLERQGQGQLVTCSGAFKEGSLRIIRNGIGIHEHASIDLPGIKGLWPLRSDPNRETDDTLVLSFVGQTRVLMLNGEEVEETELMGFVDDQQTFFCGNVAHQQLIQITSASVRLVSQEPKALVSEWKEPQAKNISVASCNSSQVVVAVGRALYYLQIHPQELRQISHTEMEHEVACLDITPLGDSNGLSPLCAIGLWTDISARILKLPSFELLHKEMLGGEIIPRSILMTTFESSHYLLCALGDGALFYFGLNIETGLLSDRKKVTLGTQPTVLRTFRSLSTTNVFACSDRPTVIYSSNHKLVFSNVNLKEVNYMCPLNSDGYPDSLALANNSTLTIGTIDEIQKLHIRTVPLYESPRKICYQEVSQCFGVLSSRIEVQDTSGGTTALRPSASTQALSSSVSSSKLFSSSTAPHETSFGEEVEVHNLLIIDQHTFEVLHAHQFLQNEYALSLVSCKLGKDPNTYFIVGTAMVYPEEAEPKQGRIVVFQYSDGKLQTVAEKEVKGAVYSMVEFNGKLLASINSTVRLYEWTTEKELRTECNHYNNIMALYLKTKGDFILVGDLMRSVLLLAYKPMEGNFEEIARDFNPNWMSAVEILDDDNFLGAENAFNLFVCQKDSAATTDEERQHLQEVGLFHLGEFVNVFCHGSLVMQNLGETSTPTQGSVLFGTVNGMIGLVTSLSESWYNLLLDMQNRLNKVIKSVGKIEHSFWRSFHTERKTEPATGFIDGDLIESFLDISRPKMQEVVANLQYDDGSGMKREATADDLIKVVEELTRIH
T2 sequence (P15170 whole entry): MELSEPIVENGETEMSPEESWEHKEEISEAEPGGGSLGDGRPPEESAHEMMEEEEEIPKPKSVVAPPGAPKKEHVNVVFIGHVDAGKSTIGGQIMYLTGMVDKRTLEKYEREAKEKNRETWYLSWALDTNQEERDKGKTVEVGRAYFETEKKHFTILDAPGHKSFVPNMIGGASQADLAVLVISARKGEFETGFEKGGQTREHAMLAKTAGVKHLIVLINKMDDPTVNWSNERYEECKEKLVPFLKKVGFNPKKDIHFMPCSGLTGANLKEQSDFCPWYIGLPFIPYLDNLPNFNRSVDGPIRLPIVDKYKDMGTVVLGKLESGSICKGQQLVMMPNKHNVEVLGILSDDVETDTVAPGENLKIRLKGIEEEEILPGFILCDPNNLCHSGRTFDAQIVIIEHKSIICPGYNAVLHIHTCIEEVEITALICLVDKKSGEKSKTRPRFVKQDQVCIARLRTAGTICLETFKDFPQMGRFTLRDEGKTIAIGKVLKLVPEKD
T2 sequence (Q96SW2 whole entry): as the sequence (Q96SW2 whole entry) above
T2 sequence (Q16531 whole entry partner): as the sequence (Q16531 whole entry partner) above

Turning to `O=C1CCC(N2Cc3cc(-c4cc(-c5ccccc5)no4)ccc3C2=O)C(=O)N1` (stereo not drawn) [Example 43, 3-(1-Oxo-5-(3-phenylisoxazol-5-yl)isoindolin-2-yl)piperidine-2,6-dione], in assay [1] (six hours incubation), the “CK1α Ymin” value is reported as “D (D = >10- 25% remaining)” and the DC50 is less than 25 nM. Also, in assay [2], the “Ymin (%)” value is recorded as “F (>25-50% remaining)” and the pEC50 is 6.30 to 7.00. For the same compound, in assay [3] (six hours incubation), the 50% degradation concentration (DC50) was not below 25 nM and the “GSPT1 Ymin” value was “F (F = >75-100% remaining)”.
On to `CCn1nc(-c2ccccc2)c(-c2ccc3c(c2)CN(C2CCC(=O)NC2=O)C3=O)n1` (stereo not drawn) [Example 51, 3-(5-(2-Ethyl-5-phenyl-2H-1,2,3-triazol-4-yl)-1-oxoisoindolin-2-yl)piperidine-2,6-dione], for which, in assay [1] (six hours incubation), the “CK1α Ymin” value was “C (C = 0-10% remaining)” and the 50% degradation concentration (DC50) is less than 25 nM. In addition, in assay [2], the “Ymin (%)” value is given as “D (0-10% remaining)” and the pEC50 is 7.00 to 8.00. Further, in assay [3] (six hours incubation), the DC50 is not below 25 nM and the “GSPT1 Ymin” value is on record as “F (F = >75-100% remaining)”.
Take `Cn1c(C2CC2)nc(-c2ccc3c(c2)CN(C2CCC(=O)NC2=O)C3=O)c1-c1ccccc1` (stereo not drawn) [Example 12, 3-(5-(2-cyclopropyl-1-methyl-5-phenyl-1H-imidazol-4-yl)-1-oxoisoindolin-2-yl)piperidine-2,6-dione]: in assay [1] (six hours incubation), the “CK1α Ymin” value is on record as “C (C = 0-10% remaining)” and the DC50 is less than 25 nM. In assay [2], the “Ymin (%)” value was “D (0-10% remaining)” and the pEC50 is more than 8.00. Further, in assay [3] (six hours incubation), the DC50 was not below 25 nM and the “GSPT1 Ymin” value is on record as “E (E = >25-75% remaining)”.
With `O=C1CCC(N2Cc3cc(-c4nc(-c5ccccc5)n(C(F)F)n4)ccc3C2=O)C(=O)N1` (stereo not drawn) [Example 703, 3-(5-(1-(difluoromethyl)-5-phenyl-1H-1,2,4-triazol-3-yl)-1-oxoisoindolin-2-yl) piperidine-2,6-dione], in assay [1] (six hours), the “CK1α Ymin” value is recorded as “D (D = >10- 25% remaining)” and the half-maximal degradation concentration (DC50) is less than 25 nM. In assay [2], the “Ymin (%)” value is “E (>10-25% remaining)” and the pEC50 was 7.00 to 8.00. In assay [3] (six hours), the 50% degradation concentration (DC50) is not below 25 nM and the “GSPT1 Ymin” value is listed as “F (F = >75-100% remaining)”.
Turning to `Cn1cnc(-c2ccc3c(c2)CN(C2CCC(=O)NC2=O)C3=O)c1-c1ccc(F)c(C#N)c1` (stereo not drawn) [Example 184], in assay [1] (six hours incubation), the “CK1α Ymin” value is reported as “D (D = >10- 25% remaining)” and the half-maximal degradation concentration (DC50) was less than 25 nM. In addition, in assay [2], the “Ymin (%)” value is on record as “D (0-10% remaining)” and the negative logarithm of the EC50 (pEC50) is 7.00 to 8.00. Besides, in assay [3] (six hours incubation), the DC50 was not below 25 nM and the “GSPT1 Ymin” value is “C (C = 0-10% remaining)”.
Turning to `Cn1cc(-c2ccc3c(c2)CN(C2CCC(=O)NC2=O)C3=O)nc1C1CCCCC1` (stereo not drawn) [Example 335, 3-(5-(2-cyclohexyl-1-methyl-1H-imidazol-4-yl)-1-oxoisoindolin-2-yl)piperidine-2,6-dione], in assay [1] (six hours incubation), the “CK1α Ymin” value was “C (C = 0-10% remaining)” and the DC50 was less than 25 nM. Also, in assay [2], the “Ymin (%)” value is reported as “D (0-10% remaining)” and the pEC50 was 7.00 to 8.00. In assay [3] (six hours incubation), the DC50 is less than 25 nM and the “GSPT1 Ymin” value is “F (F = >75-100% remaining)”.
Turning to `Cn1cc(-c2ccc3c(c2)CN(C2CCC(=O)NC2=O)C3=O)nc1-c1ccccc1` (stereo not drawn) [Example 25, 3-(5-(1-Methyl-2-phenyl-1H-imidazol-4-yl)-1-oxoisoindolin-2-yl)piperidine-2,6-dione], in assay [1] (six hours incubation), the “CK1α Ymin” value was “C (C = 0-10% remaining)” and the DC50 is less than 25 nM. In assay [2], the “Ymin (%)” value is on record as “D (0-10% remaining)” and the pEC50 is more than 8.00. In assay [3] (six hours incubation), the half-maximal degradation concentration (DC50) is not below 25 nM and the “GSPT1 Ymin” value is recorded as “F (F = >75-100% remaining)”.
Regarding `O=C1CCC(N2Cc3cc(-c4cnoc4-c4ccccc4)ccc3C2=O)C(=O)N1` (stereo not drawn) [Example 39, 3-(1-Oxo-5-(5-phenylisoxazol-4-yl)isoindolin-2-yl)piperidine-2,6-dione], in assay [1] (six hours incubation), the “CK1α Ymin” value is “E (E = >25-75% remaining)” and the half-maximal degradation concentration (DC50) is less than 25 nM. Further, in assay [2], the “Ymin (%)” value is listed as “D (0-10% remaining)” and the pEC50 was 6.30 to 7.00. Moreover, in assay [3] (six hours incubation), the half-maximal degradation concentration (DC50) was not below 25 nM and the “GSPT1 Ymin” value is given as “F (F = >75-100% remaining)”.
As for `Cn1ncc(-c2ccc3c(c2)CN(C2CCC(=O)NC2=O)C3=O)c1C1CCCCC1` (stereo not drawn) [Example 588], in assay [1] (six hours), the “CK1α Ymin” value is “E (E = >25-75% remaining)” and the DC50 was less than 25 nM. Besides, in assay [2], the “Ymin (%)” value is reported as “F (>25-50% remaining)” and the pEC50 was 7.00 to 8.00. Further, in assay [3] (six hours), the 50% degradation concentration (DC50) is not below 25 nM and the “GSPT1 Ymin” value is recorded as “F (F = >75-100% remaining)”.
`CC(C)n1nc(-c2ccc3c(c2)CN(C2CCC(=O)NC2=O)C3=O)cc1-c1ccccc1` (stereo not drawn) [Example 550, 3-(5-(1-isopropyl-5-phenyl-1H-pyrazol-3-yl)-1-oxoisoindolin-2-yl)piperidine-2,6-dione]: in assay [1] (six hours), the “CK1α Ymin” value was “C (C = 0-10% remaining)” and the DC50 is less than 25 nM. In addition, in assay [2], the “Ymin (%)” value was “D (0-10% remaining)” and the pEC50 is 7.00 to 8.00. In addition, in assay [3] (six hours), the DC50 was not below 25 nM and the “GSPT1 Ymin” value is given as “F (F = >75-100% remaining)”.
For `Cn1cnc(-c2ccc3c(c2)CN(C2CCC(=O)NC2=O)C3=O)c1-c1cnn2ccccc12` (stereo not drawn) [Example 331], in assay [1] (six hours incubation), the “CK1α Ymin” value was “D (D = >10- 25% remaining)” and the DC50 is less than 25 nM. Besides, in assay [2], the “Ymin (%)” value is “D (0-10% remaining)” and the pEC50 is 7.00 to 8.00. In assay [3] (six hours incubation), the DC50 is not below 25 nM and the “GSPT1 Ymin” value was “F (F = >75-100% remaining)”.
Regarding `O=C1CCC(N2Cc3cc(-c4cnn5c4-c4ccccc4C5)ccc3C2=O)C(=O)N1` (stereo not drawn) [Example 212, 3-(1-Oxo-5-(8H-pyrazolo[5,1-a]isoindol-3-yl)isoindolin-2-yl)piperidine-2,6-dione], in assay [1] (six hours incubation), the “CK1α Ymin” value is on record as “D (D = >10- 25% remaining)” and the 50% degradation concentration (DC50) was less than 25 nM. For the same compound, in assay [2], the “Ymin (%)” value was “D (0-10% remaining)” and the pEC50 is 6.30 to 7.00. For the same compound, in assay [3] (six hours incubation), the 50% degradation concentration (DC50) was not below 25 nM and the “GSPT1 Ymin” value was “F (F = >75-100% remaining)”.
As to `Cn1nc(-c2ccc3c(c2)CN(C2CCC(=O)NC2=O)C3=O)cc1-c1ccc(F)cc1` (stereo not drawn) [Example 488, 3-(5-(5-(4-fluorophenyl)-1-methyl-1H-pyrazol-3-yl)-1-oxoisoindolin-2-yl)piperidine-2,6-dione], in assay [1] (six hours), the “CK1α Ymin” value is on record as “D (D = >10- 25% remaining)” and the 50% degradation concentration (DC50) was less than 25 nM. In assay [2], the “Ymin (%)” value is “E (>10-25% remaining)” and the negative logarithm of the EC50 (pEC50) was 7.00 to 8.00.
With `Cn1nc(-c2ccc3c(c2)CN(C2CCC(=O)NC2=O)C3=O)nc1N1CCCC1` (stereo not drawn) [Example 713, 3-(5-(1-methyl-5-(pyrrolidin-1-yl)-1H-1,2,4-triazol-3-yl)-1-oxoisoindolin-2-yl)piperidine-2,6-dione], in assay [1] (six hours), the “CK1α Ymin” value is given as “D (D = >10- 25% remaining)” and the 50% degradation concentration (DC50) was less than 25 nM. For the same compound, in assay [4], the DC50 is less than 25 nM and the “GSPT1 Ymin” value is recorded as “F (F = >75-100% remaining)”.
As to `Cn1cc(-c2ccc3c(c2)CN(C2CCC(=O)NC2=O)C3=O)nc1-c1cccs1` (stereo not drawn) [Example 646], in assay [1] (six hours), the “CK1α Ymin” value is given as “C (C = 0-10% remaining)” and the 50% degradation concentration (DC50) is less than 25 nM. Also, in assay [4], the half-maximal degradation concentration (DC50) was not below 25 nM and the “GSPT1 Ymin” value is “F (F = >75-100% remaining)”.
